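The compound was tested at five concentrations on cells cultured in 96-well plates, with a 48-hour exposure period. Here, GI50 denotes the concentration required for 50% inhibition of growth. Definition used: TGI = concentration required for complete inhibition of growth.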
What was measured:
Assay in all cases: NCI-60 cell line screen, 48 h
786-0 renal = tested on: 786-0 renal
A498 renal = tested on: A498 renal
A549 NSCLC = tested on: A549 NSCLC
ACHN renal = tested on: ACHN renal
BT-549 breast = tested on: BT-549 breast
CAKI-1 renal = tested on: CAKI-1 renal
CCRF-CEM leukemia = tested on: CCRF-CEM leukemia
COLO 205 colon = tested on: COLO 205 colon
DU-145 prostate = tested on: DU-145 prostate
EKVX NSCLC = tested on: EKVX NSCLC
HCC-2998 colon = tested on: HCC-2998 colon
HCT-116 colon = tested on: HCT-116 colon
HCT-15 colon = tested on: HCT-15 colon
HL-60(TB) leukemia = tested on: HL-60(TB) leukemia
HOP-62 NSCLC = tested on: HOP-62 NSCLC
HOP-92 NSCLC = tested on: HOP-92 NSCLC
HT29 colon = tested on: HT29 colon
IGROV1 ovarian = tested on: IGROV1 ovarian
K-562 leukemia = tested on: K-562 leukemia
KM12 colon = tested on: KM12 colon
M14 melanoma = tested on: M14 melanoma
MALME-3M melanoma = tested on: MALME-3M melanoma
MCF7 breast = tested on: MCF7 breast
MDA-MB-435 = tested on: MDA-MB-435
MDA-MB-468 breast = tested on: MDA-MB-468 breast
MOLT-4 leukemia = tested on: MOLT-4 leukemia
NCI-H226 lung = tested on: NCI-H226 lung
NCI-H23 lung = tested on: NCI-H23 lung
NCI-H460 lung = tested on: NCI-H460 lung
NCI-H522 lung = tested on: NCI-H522 lung
NCI/ADR-RES ovarian = tested on: NCI/ADR-RES ovarian
OVCAR-3 ovarian = tested on: OVCAR-3 ovarian
OVCAR-4 ovarian = tested on: OVCAR-4 ovarian
OVCAR-5 ovarian = tested on: OVCAR-5 ovarian
OVCAR-8 ovarian = tested on: OVCAR-8 ovarian
PC-3 prostate = tested on: PC-3 prostate
RPMI-8226 leukemia = tested on: RPMI-8226 leukemia
RXF 393 renal = tested on: RXF 393 renal
SF-268 CNS = tested on: SF-268 CNS
SF-295 CNS = tested on: SF-295 CNS
SF-539 CNS = tested on: SF-539 CNS
SK-MEL-2 melanoma = tested on: SK-MEL-2 melanoma
SK-MEL-28 melanoma = tested on: SK-MEL-28 melanoma
SK-MEL-5 melanoma = tested on: SK-MEL-5 melanoma
SK-OV-3 ovarian = tested on: SK-OV-3 ovarian
SN12C renal = tested on: SN12C renal
SNB-19 CNS = tested on: SNB-19 CNS
SNB-75 CNS = tested on: SNB-75 CNS
SR leukemia = tested on: SR leukemia
T-47D breast = tested on: T-47D breast
TK-10 renal = tested on: TK-10 renal
U251 CNS = tested on: U251 CNS
UACC-257 melanoma = tested on: UACC-257 melanoma
UACC-62 melanoma = tested on: UACC-62 melanoma
UO-31 renal = tested on: UO-31 renal

COc1ccc(-c2ccnc(SCc3cc4cc(OC)ccc4[nH]c3=O)n2)cc1 was tested, and the GI50 (786-0 renal) was 26 µM, the TGI (786-0 renal) was > 100 µM and the GI50 (A498 renal) was > 100 µM. For the same compound, the TGI (A498 renal) was > 100 µM, the GI50 (A549 NSCLC) was 10.1 µM and the TGI (A549 NSCLC) was > 100 µM. The GI50 (ACHN renal) was 20.6 µM, the TGI (ACHN renal) was > 100 µM and the GI50 (BT-549 breast) was 3.4 µM. The TGI (BT-549 breast) was > 100 µM, the GI50 (CAKI-1 renal) was 6.11 µM and the TGI (CAKI-1 renal) was > 100 µM. For the same compound, the GI50 (CCRF-CEM leukemia) was 6.66 µM, the TGI (CCRF-CEM leukemia) was > 100 µM and the GI50 (COLO 205 colon) was 17.3 µM. For the same compound, the TGI (COLO 205 colon) was > 100 µM, the GI50 (DU-145 prostate) was 34.9 µM and the TGI (DU-145 prostate) was > 100 µM. The GI50 (EKVX NSCLC) was 4.16 µM, the TGI (EKVX NSCLC) was > 100 µM and the GI50 (HCC-2998 colon) was 31.4 µM. The TGI (HCC-2998 colon) was > 100 µM, the GI50 (HCT-116 colon) was 3.64 µM and the TGI (HCT-116 colon) was > 100 µM. For the same compound, the GI50 (HCT-15 colon) was 4.33 µM, the TGI (HCT-15 colon) was > 100 µM and the GI50 (HL-60(TB) leukemia) was 2.34 µM. The TGI (HL-60(TB) leukemia) was > 100 µM, the GI50 (HOP-62 NSCLC) was 10.9 µM and the TGI (HOP-62 NSCLC) was 97.9 µM. The GI50 (HOP-92 NSCLC) was 7.95 µM, the TGI (HOP-92 NSCLC) was > 100 µM and the GI50 (HT29 colon) was 5.38 µM. The TGI (HT29 colon) was > 100 µM, the GI50 (IGROV1 ovarian) was 5.66 µM and the TGI (IGROV1 ovarian) was > 100 µM. For the same compound, the GI50 (K-562 leukemia) was 2.55 µM, the TGI (K-562 leukemia) was > 100 µM and the GI50 (KM12 colon) was 9.43 µM. For the same compound, the TGI (KM12 colon) was > 100 µM, the GI50 (M14 melanoma) was 7.31 µM and the TGI (M14 melanoma) was > 100 µM. The GI50 (MALME-3M melanoma) was 17 µM, the TGI (MALME-3M melanoma) was > 100 µM and the GI50 (MCF7 breast) was 4.65 µM. The TGI (MCF7 breast) was > 100 µM, the GI50 (MDA-MB-435) was 3.17 µM and the TGI (MDA-MB-435) was > 100 µM. It also gave a GI50 (MDA-MB-468 breast) of 2.09 µM, a TGI (MDA-MB-468 breast) of 6.16 µM and a GI50 (MOLT-4 leukemia) of 3.26 µM. For the same compound, the TGI (MOLT-4 leukemia) was > 100 µM, the GI50 (NCI-H226 lung) was 8.14 µM and the TGI (NCI-H226 lung) was > 100 µM. For the same compound, the GI50 (NCI-H23 lung) was 19 µM, the TGI (NCI-H23 lung) was > 100 µM and the GI50 (NCI-H460 lung) was 7.41 µM. For the same compound, the TGI (NCI-H460 lung) was > 100 µM, the GI50 (NCI-H522 lung) was 7.82 µM and the TGI (NCI-H522 lung) was > 100 µM. The GI50 (NCI/ADR-RES ovarian) was 4.06 µM, the TGI (NCI/ADR-RES ovarian) was > 100 µM and the GI50 (OVCAR-3 ovarian) was 17.9 µM. The TGI (OVCAR-3 ovarian) was > 100 µM, the GI50 (OVCAR-4 ovarian) was 17.6 µM and the TGI (OVCAR-4 ovarian) was > 100 µM. The GI50 (OVCAR-5 ovarian) was 23.6 µM, the TGI (OVCAR-5 ovarian) was > 100 µM and the GI50 (OVCAR-8 ovarian) was 22.8 µM. The TGI (OVCAR-8 ovarian) was > 100 µM, the GI50 (PC-3 prostate) was 6.96 µM and the TGI (PC-3 prostate) was > 100 µM. For the same compound, the GI50 (RPMI-8226 leukemia) was 5.05 µM, the TGI (RPMI-8226 leukemia) was > 100 µM and the GI50 (RXF 393 renal) was 4.42 µM. For the same compound, the TGI (RXF 393 renal) was > 100 µM, the GI50 (SF-268 CNS) was 17.7 µM and the TGI (SF-268 CNS) was > 100 µM. The GI50 (SF-295 CNS) was 7.09 µM, the TGI (SF-295 CNS) was > 100 µM and the GI50 (SF-539 CNS) was 6.67 µM. For the same compound, the TGI (SF-539 CNS) was > 100 µM, the GI50 (SK-MEL-2 melanoma) was 6.27 µM and the TGI (SK-MEL-2 melanoma) was > 100 µM. The GI50 (SK-MEL-28 melanoma) was 14.1 µM, the TGI (SK-MEL-28 melanoma) was > 100 µM and the GI50 (SK-MEL-5 melanoma) was 4.95 µM. For the same compound, the TGI (SK-MEL-5 melanoma) was 38 µM, the GI50 (SK-OV-3 ovarian) was 56.3 µM and the TGI (SK-OV-3 ovarian) was > 100 µM. The GI50 (SN12C renal) was 7.41 µM, the TGI (SN12C renal) was > 100 µM and the GI50 (SNB-19 CNS) was 35.2 µM. For the same compound, the TGI (SNB-19 CNS) was > 100 µM, the GI50 (SNB-75 CNS) was 2.46 µM and the TGI (SNB-75 CNS) was 71.4 µM. For the same compound, the GI50 (SR leukemia) was 2.95 µM, the TGI (SR leukemia) was > 100 µM and the GI50 (T-47D breast) was 4.97 µM. For the same compound, the TGI (T-47D breast) was > 100 µM, the GI50 (TK-10 renal) was 26.1 µM and the TGI (TK-10 renal) was > 100 µM. The GI50 (U251 CNS) was 12.4 µM, the TGI (U251 CNS) was > 100 µM and the GI50 (UACC-257 melanoma) was 74.5 µM. For the same compound, the TGI (UACC-257 melanoma) was > 100 µM, the GI50 (UACC-62 melanoma) was 4.62 µM and the TGI (UACC-62 melanoma) was > 100 µM. The GI50 (UO-31 renal) was 8.94 µM and the TGI (UO-31 renal) was > 100 µM.

From PubChem BioAssay (NCI)
